Measurements as given in patent US20160279236A1, “USE OF RAPAMYCIN AS VACCINE ADJUVANT AND PREPARATION METHOD THEREFOR” (INSTITUT PASTEUR OF SHANGHAI, CHINESE ACADEMY OF SCIENCES, priority 2013, published 2016).
Entries after “also recorded” stand apart in the source; their conditions may differ.

Columns and labels:
[1] = tested on: BMDMs; assay: Real-time quantitative PCR of gene expression in LPS-stimulated BMDMs; format: cell-based, C57BL/6 mice; conditions: 100 nM rapamycin
Experimental: Bone marrow stem cells of 6-8 weeks aged C57BL/6 mice were taken, and the cells are cultivated at 10^6 cells/mL cell density in bone marrow-derived macrophage (BMDM) differentiation medium (formulation of which was: RPMI 1640 complete medium added with 30% (v/v) L929 conditioned medium and 1% (v/v) pen/strep). After differentiation for 4 days, the old culture medium (comprising suspended cells) was removed and fresh BMDM differentiation medium was added. The adhered BMDMs were collected on the 7th day of differentiation and used in in vitro experiment.
The BMDMs were pre-treated with 100 nM of rapamycin or DMSO for 1 hour, and then the cells were stimulated with 100 ng/ml LPS […]. The cells were collected at 1, 2, 4 and 8 hours, and were cryopreserved in a refrigerator at −80° C. for the extraction and preparation of RNA.
TRIZOL (Invitrogen) method was used to extract RNA of BMDM, and Superscript™ III Reverse Transcriptase Kit (Invitrogen) was used to respectively reverse transcribe 1 μg RNA so as to synthesize the first-strand cDNA for Real-time quantitative PCR determine of gene expression levels. The primers for Real-time quantitative PCR are shown in table 1. ΔΔ method was used to calculate the relative expression level of the determined gene compared with GAPDH.

[2] = tested on: OVA-specific T cell responses and antibody responses; assay: Ovalbumin immunization of mice with adjuvants: OVA-specific T cell and antibody responses; format: in vivo
Experimental: 6-8 weeks aged mice were primarily immunized by the inventors using intraperitoneal injection method, wherein Ovalbumin (10 μg/mouse) was used as antigen and PBS (negative control), MPL (10 μg/mouse, positive control), rapamycin (100 μg/mouse), rapamycin (100 μg/mouse)+MPL (10 μg/mouse) as adjuvant respectively, and were immunized again with ovalbumin (10 μg/mouse, without adjuvant) at 3 weeks. […] After 48 hours, enzyme linked immunosorbent assay (ELISA) was used to determine the content of IFNγ in the supernatant.

[3] = tested on: BMDCs; assay: IL-12 expression (ELISA) in BMDCs stimulated by Toll-like receptor agonists with or without rapamycin; format: cell-based, mouse; conditions: rapamycin 100 nM 1 hour
Experimental: The present inventors have firstly studied the influence of rapamycin on IL-12 expression induced by a variety of Toll-like receptors agonist including polyI:C by in vitro experiments. Dendritic cells differentiated from mouse bone marrow cells (BMDCs differentiated for 7 days with 20 ng/ml GM-CSF and 10 ng/ml IL-4) were pre-treated with or without rapamycin (100 nM) for 1 hour, and stimulated by LPS (100 ng/ml), MPL (1 μg/ml), R848 (1 μg/ml) and polyI:C (20 μg/ml) respectively for 24 hours, and cell culture media were taken to determine the content of IL-12 by ELISA.

[4] = tested on: HBsAg-specific antibody and T cell responses; assay: HBsAg VLP immunization of mice with adjuvants: antibody titers and Elispot T cell responses; format: in vivo, C57BL/6 mice
Experimental: Virus-like particles (VLP) consisting of (HBV) outer membrane protein antigens is one of the few successful recombinant vaccines clinically used. Aluminum adjuvant (Alum) can only enhance the immune response of VLP in health populations, while it is of limited effects in the elderly people and patients with renal dysfunction. […] In order to further analyze the adjuvant activity of rapamycin, C57BL/6 mice were immunized by the inventors using HBsAg VLP (5 μg/mouse) (Shanghai Yemin Biotechnology Co., Ltd., Item number YM-101) as antigen in mixture with Alum (200 μg/mouse), Alum (200 μg/mouse)+MPL (10 μg/mouse), MPL (10 μg/mouse)+rapamycin (100 μg/mouse) respectively, and was immunized with HBsAg (without MPL or rapamycin) 3 weeks after the primary immunization. The mice were killed 2 weeks after the secondary immunization, and blood was taken to determine the content of HBsAg-specific IgG1, IgG2b, IgG2c. To test HBsAg-specific T cell responses, the inventors have determined HBsAg-specific induced Th1, Th17 and Th2 responses by Elispot (Elispot Assay).
The specific operations are listed as follows: spleen cells were inoculated at 5×10^5 cells per-well into Elispot 96-wells plate of IFNγ, IL-17 or IL-4, and treated or untreated (control) with HBsAg (10 μg/ml) or CD8 peptides (10 μg/ml, […], VWLSVIWM, China Peptides Co., LTD., Shanghai), incubated under 37° C., 5% CO2 for two days. The cells and supernatants were removed. The plates were washed with PBST for 5 times, then incubated with 50 μl of 2 μg/ml biotin-coupled IFNγ (ebioscience, cat No: 13-7312), IL-17 (ebioscience, cat No: 13-7177) or IL-4 (Mabtech, cat No: 3311-6-250) detecting antibody under 37° C. for 2 hours, washed with PBST for 5 times, then incubated with 100 μl of 1000-fold diluted Streptavidin-alkaline phosphatase (Mabtech, cat No: 3310-10) under 37° C. for 1 hour. After this incubation, plates washed with PBST for 3 times, and then washed with PBS for two times. 100 μl of NBT/CPIT substrate (Mabtech, cat No: 3650-10) was added and incubated at room temperature for 0.5 hour. Plates were washed with deionized water for 3 times, and then naturally dried in darkness. The numbers of positive spots was calculated with Elispot Reader, and then statistically analyzed.

[5] = 100 ng/ml LPS, during 4 hours of LPS stimulation, relative to GAPDH
[6] = blood 1 week after secondary immunization, single adjuvants vs negative control, combination vs MPL alone

## CO[C@H]1C[C@@H]2CC[C@@H](C)[C@@](O)(O2)C(=O)C(=O)N2CCCC[C@H]2C(=O)O[C@H]([C@H](C)C[C@@H]2CC[C@@H](O)[C@H](OC)C2)CC(=O)[C@H](C)/C=C(\C)[C@@H](O)[C@@H](OC)C(=O)[C@H](C)C[C@H](C)/C=C/C=C/C=C/1C [rapamycin]
[1]; [5]
  expression of IL-10: inhibit the expression
  transcriptional expression of IL-12a: increased the transcriptional expression; also recorded: promote the transcript expression
  transcriptional expression of IL-12b: increased the transcriptional expression; also recorded: promote the transcript expression
  transcriptional expression of IL-23a: increased the transcriptional expression; also recorded: promote the transcript expression
[1]; LPS
  transcription and expression of CXCL2: did not affect the transcription and expression
  transcription and expression of TNFα: did not affect the transcription and expression
[1]; upon stimulation of LPS
  expression of CD40: no remarkable influence
  expression of CD80: no remarkable influence
  expression of CD86: no remarkable influence
  expression of PD-L1: remarkably decreased the expression; also recorded: inhibit the expression
[2]; [6]
  OVA-specific IgG1 antibody titers: relatively moderate
  OVA-specific IgG2b antibody titers: relatively moderate; also recorded: enhanced
  OVA-specific IgG2c antibody titers: relatively moderate; also recorded: enhanced
[2]; mice i.p., ovalbumin 10 μg, MPL 10 μg, rapamycin 100 μg per mouse, IFNγ ELISA of splenic cells stimulated with OVA-1, 48 hours
  OVA-specific CD8+ T cell responses: relatively moderate; also recorded: enhanced
[2]; mice i.p., ovalbumin 10 μg, MPL 10 μg, rapamycin 100 μg per mouse, IFNγ ELISA of splenic cells stimulated with OVA-II, 48 hours
  OVA-specific CD4+ (Th1) T cell responses: relatively moderate; also recorded: enhanced
[3]; LPS 100 ng/ml 24 hours
  IL-12 expression induced by lipopolysaccharide: enhance
[3]; MPL 1 μg/ml 24 hours
  IL-12 expression induced by MPL: enhance; also recorded: effectively enhanced
[3]; R848 1 μg/ml 24 hours
  IL-12 expression induced by R848: effectively enhanced
[3]; polyI:C 20 μg/ml 24 hours
  IL-12 expression induced by polyI:C: effectively enhanced
[4]; FIG. 4a
  HBsAg-specific antigen response enhanced by MPL: increased
[4]; IFNγ Elispot of spleen cells, CD8 peptides, compared with MPL+Alum immunized group
  HBsAg-specific CD8+ T cell responses: increased
[4]; IFNγ Elispot of spleen cells, compared with MPL+Alum immunized group
  HBsAg-specific CD4+ T cell responses: increased
[4]; IL-4 Elispot, compared with MPL+Alum immunized group
  HBsAg-specific Th2 cell response: increased
[4]; IL-17 Elispot, compared with MPL+Alum immunized group
  HBsAg-specific Th17 cell response: increased
